# Experimental data taken from patent US9241976B2, “Use of HDL-related molecules to treat and prevent proinflammatory conditions” (THE REGENTS OF THE UNIVERSITY OF CALIFORNIA, priority 2011, dated 2016).
# Assays:
# CT26 cells [1] = experiment: Pulmonary metastasis in vivo: CT26 lung tumors in BALB/c mice; set-up: species or system mouse; details: CT26 via tail vein, 100 mg/kg/d in chow diet for 3 weeks
# Method: BALB/c mice were intravenously injected with 2×10^4 CT26 cells in 100 μL of PBS via tail vein injection and the mice were treated with bHDL at 10 mg/kg/day administered SQ for 3 weeks; or treated with bHDL at 100 mg/kg/day administered in a chow diet for 3 weeks. After 3 weeks treatment, the mice were sacrificed; lungs were harvested, weighed and fixed with Bouin's solution (Sigma). Tumor nodules on the lung surface were counted.
# BALB/c mice were intravenously injected with 2×10^4 CT26 cells in […] of PBS via tail vein injection and the mice were treated with L-4F or sc-4F at 10 mg/kg/d administered subcutaneously for 3 weeks, or treated with sc-4F or L-4F or G* peptide at 100 mg/kg/d administered in a chow diet for 3 weeks. After 3 weeks treatment, the mice were sacrificed; lungs were harvested, weighed, and fixed with Bouin solution (Sigma). Tumor nodules on the lung surface were counted.
# [2] = tested on: lysophosphatidic acid (LPA); experiment: Plasma LPA levels in treated mice; assay type: in vivo, mouse; details: BALB/c lung tumor mice; 100 mg/kg/d in chow for 3 weeks; vs control mice
# Method: LPA (20:4) was purchased from Avanti Polar Lipids. LPA levels were determined as described previously (Murph et al., 2007, Methods Enymol 433:1-25).
# LPA (20:4) was purchased from Avanti Polar Lipids. LPA levels were determined as described previously (19).
# cyclin D1 and cyclin A = experiment: Western blot of cyclin D1 and cyclin A in CT26 cells; assay type: cell-based, mouse
# Method: Total cell proteins were collected after treatment in cell lysis buffer containing 0.1 mol/L NaCl, 5 mmol/L EDTA, 50 mmol/L sodium orthovanadate, 1% Triton X-100, and protease inhibitor tablet in 50 mmol/L Tris buffer (pH 7.5). Twenty micrograms of total proteins were separated by SDS-PAGE and transferred onto nitrocellulose membrane and followed by incubation with primary antibody at 4° C. in 5% skim milk and 0.1% Tween-20. Anti-cyclin D1 and anti-cyclin A rabbit polyclonal antibodies were used at 1:1,000 dilution, and anti-b-actin polyclonal antibody was used at 1:2,000 dilution.
# CT26 cells [3] = experiment: CT26 cell viability, MTS assay; details: Example 5; CT26 cells, 10 mg/mL, 48 hours
# Method: CT26 cell line derived from N-nitroso-N-methyl urethane-induced mouse colon carcinoma of BALB/c origin was purchased from the American Type Culture Collection (ATCC). CT26 cells (2,000 cells per well) were first cultured in complete medium in 96-well culture plates, and 24 hours later the medium was replaced with serum free medium. Following an overnight incubation, the cells were either treated with vehicle (control), or treated with 10 μg/mL of either bHDL. The bHDL were dissolved in H2O. Cells were incubated for an additional 48 hours and assayed for viability using the MTS assays kit (Promega) according to the manufacturer's protocol.
# CT26 cell line derived from N-nitroso-N-methyl urethane-induced mouse colon carcinoma of BALB/c origin was purchased from the American Type Culture Collection. CT26 cells (2,000 cells per well) were first cultured in complete medium in 96-well culture plates, and 24 hours later the medium was replaced with serum-free medium. Following an overnight incubation, the cells were either treated with vehicle (control) or treated with 10 mg/mL of either L-4F or G* peptide. The peptides were dissolved in H2O. Cells were incubated for an additional 48 hours and assayed for viability using the MTS assay kit (Promega) according to the manufacturer's protocol.
substance,measurement,setting,value
"Ac-LVGRQLEEFL-NH2 [G* peptide, Ac-L-V-G-R-Q-L-E-E-F-LNH2]",lung weights,CT26 cells [1],250 mg
same,tumor numbers on the lung surface,CT26 cells [1],10
same,plasma LPA levels,[2],significantly reduced
same,expression of cyclin D1 and cyclin A,cyclin D1 and cyclin A,lower
same,"Cell viability reduced, compared with control",CT26 cells [3],approximately 40%
